Patent US20130045204A1, “FLUORINATED BISPHENOL ETHER COMPOUNDS AND METHODS FOR THEIR USE” (The University of British Columbia, priority 2011, published 2013)
“Also recorded” adds a separate entry of the source.

Experiments:
[1] = biological target: T1, AR (Homo sapiens, UniProt P10275); assay: PSA-luciferase reporter assay of AR transcriptional activity; assay type: cell-based; details: for PSA-Luc activity (%) mean ± SD: PSA-luciferase reporter
T1 sequence (P10275 1-920 T878A): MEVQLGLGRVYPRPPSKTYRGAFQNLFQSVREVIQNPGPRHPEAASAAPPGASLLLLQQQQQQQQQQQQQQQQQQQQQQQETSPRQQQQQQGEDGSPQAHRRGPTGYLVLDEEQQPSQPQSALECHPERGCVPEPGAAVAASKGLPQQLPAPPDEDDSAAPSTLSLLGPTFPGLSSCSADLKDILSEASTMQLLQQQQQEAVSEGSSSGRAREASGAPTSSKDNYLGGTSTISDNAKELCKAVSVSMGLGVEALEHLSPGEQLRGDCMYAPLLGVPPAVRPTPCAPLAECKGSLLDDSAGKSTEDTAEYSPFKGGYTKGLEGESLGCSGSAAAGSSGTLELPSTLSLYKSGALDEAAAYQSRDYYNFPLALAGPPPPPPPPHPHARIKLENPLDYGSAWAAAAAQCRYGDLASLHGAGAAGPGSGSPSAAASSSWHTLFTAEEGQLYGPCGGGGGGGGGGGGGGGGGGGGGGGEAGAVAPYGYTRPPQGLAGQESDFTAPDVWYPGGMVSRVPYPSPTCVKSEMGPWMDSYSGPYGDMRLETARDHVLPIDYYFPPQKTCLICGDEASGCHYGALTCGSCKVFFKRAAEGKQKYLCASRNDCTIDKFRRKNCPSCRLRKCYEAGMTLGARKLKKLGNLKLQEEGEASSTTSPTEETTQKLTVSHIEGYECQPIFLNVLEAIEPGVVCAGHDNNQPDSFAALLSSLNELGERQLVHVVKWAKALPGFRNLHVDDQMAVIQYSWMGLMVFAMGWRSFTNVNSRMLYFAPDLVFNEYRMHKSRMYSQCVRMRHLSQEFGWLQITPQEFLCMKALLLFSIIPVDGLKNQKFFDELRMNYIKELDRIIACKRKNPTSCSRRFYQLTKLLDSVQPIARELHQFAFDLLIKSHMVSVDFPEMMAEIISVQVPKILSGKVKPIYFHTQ

[2] = biological target: T1, AR; assay: probasin (PB)-luciferase reporter assay of AR transcriptional activity; assay type: cell-based
[3] = biological target: T1, AR; assay: ARR3-luciferase reporter assay of AR transcriptional activity; assay type: cell-based
[4] = system: VCaP xenografts; assay: Growth inhibition of VCaP xenografts in castrated mice; assay type: in vivo; details: castrated NOD-SCID mice, 50 mg/kg i.v. every other day, seven doses; compared to (Ac); FIGS. 3, 4
Procedure: Growth inhibition of VCaP xenografts in castrated mice was determined as follow. Male NOD-SCID mice bearing subcutaneous VCaP tumors were castrated when tumor volume was ˜100 mm^3. […] The experiment ended two days after the last dose. Change in tumor volume was determined as the change at day 14 compared to the day of 1st injection. DMSO was used as the vehicle control.

[5] = system: LNCaP cells; assay: Inhibition of androgen-dependent proliferation, AlamarBlue Proliferation Assay; assay type: cell-based, human; details: 0.1 nM R1881, 3 days; compared to comparative compound (Ac); FIGS. 1A and 1B
Procedure: LNCaP human prostate cancer cells were maintained in phenol red-free RPMI 1640 medium with 0.5% (v/v) fetal bovine serum, while PC3 human prostate cancer cells were cultured in phenol red DMEM medium with 0.5% (v/v) fetal bovine serum at 37° C. […] LNCaP cells were incubated for 72 hours with R1881, while the duration of the experiment was 48 hours for PC3 cells. AlamarBlue reagent was added to the cells prior to incubation and measuring fluorescence at 570 nm.

[6] = biological target: T2, androgen receptor N-terminal domain (Homo sapiens, UniProt P10275); assay: Inhibition of androgen receptor N-terminal domain transactivation (AR (1-558)-Gal4 DBD, luciferase); assay type: cell-based; details: LNCaP cells, compound 1 20 μm vs (Ac) 25 μm, 50 ng/ml IL-6; FIG. 2
T2 construct: AR (1-558)-Gal4 DBD; expressed in transfected cells; host or cells: LNCaP
T2 sequence (P10275 1-558): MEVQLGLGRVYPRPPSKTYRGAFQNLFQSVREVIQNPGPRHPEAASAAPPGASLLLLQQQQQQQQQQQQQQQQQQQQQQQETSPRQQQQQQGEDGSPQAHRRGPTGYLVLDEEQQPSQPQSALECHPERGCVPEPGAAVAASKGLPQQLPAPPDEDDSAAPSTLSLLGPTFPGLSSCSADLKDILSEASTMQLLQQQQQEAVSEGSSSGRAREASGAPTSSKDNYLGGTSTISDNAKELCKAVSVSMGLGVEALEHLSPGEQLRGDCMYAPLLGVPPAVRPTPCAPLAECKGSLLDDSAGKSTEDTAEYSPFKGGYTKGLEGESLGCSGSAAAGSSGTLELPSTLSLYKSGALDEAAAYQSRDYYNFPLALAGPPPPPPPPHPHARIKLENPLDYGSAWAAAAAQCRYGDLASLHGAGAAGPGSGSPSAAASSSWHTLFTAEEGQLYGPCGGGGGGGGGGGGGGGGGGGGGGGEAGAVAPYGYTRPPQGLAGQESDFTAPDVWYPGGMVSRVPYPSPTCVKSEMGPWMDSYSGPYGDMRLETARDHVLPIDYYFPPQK
Procedure: Inhibition of androgen receptor N-terminal domain transactivation was determined as follows.

[7] = system: LNCaP CRPC xenograft; assay: LNCaP CRPC xenograft model, antitumor activity; assay type: in vivo, mice; details: for CRPC tumor growth / antitumor activity (in words): compared to DMSO control or to other comparative compounds, FIGS. 6, 7
[8] = Body weight of animals in LNCaP CRPC xenograft model; assay type: in vivo, mice; details: treated animals; FIG. 9

SMILES	PSA-Luc activity (%) mean ± SD [1]	PB-Luc activity (%) mean ± SD [2]	ARR3-Luc activity (%) mean ± SD [3]	change in tumor volume at day 14 (in words) [4]	also measured
CC(C)(c1ccc(OC[C@@H](O)CO)cc1)c1ccc(OC[C@@H](O)CCl)cc1 [(Ad)]	33.55 ± 11.31%	54.72 ± 7.83%	54.73 ± 12.99%	–	–
CC(C)(c1ccc(OC[C@H](O)CF)cc1)c1ccc(OC[C@H](O)CCl)cc1 [Compound 1c, (S)-1-chloro-3-(4-(2-(4-((S)-3-fluoro-2-hydroxypropoxy)phenyl)propan-2-yl)phenoxy)propan-2-ol]	–	–	–	increased loss in tumor volume	–
CC(C)(c1ccc(OCC(O)CO)cc1)c1ccc(OCC(O)CCl)cc1 (stereo not shown) [(A)]	36.91 ± 16.46%	63.96 ± 13.70%	63.96 ± 14.57%	–	–
CC(C)(c1ccc(OC[C@@H](O)CF)cc1)c1ccc(OC[C@@H](O)CCl)cc1 [Compound 1d, (R)-1-chloro-3-(4-(2-(4-((R)-3-fluoro-2-hydroxypropoxy)phenyl)propan-2-yl)phenoxy)propan-2-ol]	–	–	–	increased loss in tumor volume	–
CC(C)(c1ccc(OCC(O)CF)cc1)c1ccc(OCC(O)CCl)cc1 (stereo not shown) [Compound 1, 1-chloro-3-(4-(2-(4-(3-fluoro-2-hydroxypropoxy)phenyl)propan-2-yl)phenoxy)propan-2-ol]	–	–	–	increased loss in tumor volume	inhibition of androgen-dependent proliferation of LNCaP cells (in words) [5]: inhibits androgen-dependent proliferation of LNCaP cells at lower concentrations; inhibition of androgen receptor N-terminal domain transactivation (in words) [6]: more potent inhibition activity
CC(C)(c1ccc(OC[C@H](O)CO)cc1)c1ccc(OC[C@@H](O)CCl)cc1 [(Aa)]	45.16 ± 29.13%	66.44 ± 12.47%	66.44 ± 31.59%	–	–
CC(C)(c1ccc(OC[C@H](O)CO)cc1)c1ccc(OC[C@H](O)CCl)cc1 [(Ac)]	24.33 ± 13.63%	41.58 ± 6.63%	41.58 ± 14.82%	–	inhibition of transcriptional activity of AR (in words) ([1]; PSA-, probasin (PB)- and ARR3-luciferase reporters, Table 3): best activity of all the comparative compounds; extent of tumor regression (in words) ([7]; (Ac) versus (Ab), FIG. 8): greater regression; animals in which tumor regression was attained ([7]; FIG. 8): 60%; CRPC tumor growth / antitumor activity (in words) [7]: better antitumor activity; also recorded: most potent and least toxic of the comparative compounds; loss of body weight (in words) [8]: No loss of body weight
CC(C)(c1ccc(OC[C@H](O)CCl)cc1)c1ccc(OC[C@@H](O)CO)cc1 [(Ab)]	24.49 ± 13.20%	43.70 ± 9.98%	43.68 ± 15.16%	–	animals in which tumor regression was attained ([7]; FIG. 8): 60%; CRPC tumor growth / antitumor activity (in words) [7]: better antitumor activity; loss of body weight (in words) [8]: some losses
